This note sets out measurements from ChEMBL document CHEMBL1201862, “PubChem BioAssay data set” (2004).

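Exposure lasted 48 hours, with cells grown in 96-well plates and compounds tested at five concentrations. GI50 is the concentration that inhibits growth by half.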 Active and inactive are the calls of the source. No stated cut-off is given here; in the data, active = GI50 up to about 1.1 µM and inactive = higher. A value given as a limit tells only on which side of the number the result lay.

Some test systems named below: ACHN; CCRF-CEM; HCC 2998; HCT-116; Hs-578T; IGROV-1; LOX IMVI; M14; MDA-MB-231; Malme-3M; NCI-H23; NCI-H460; NCI/ADR-RES; OVCAR-3; PC-3; RPMI-8226; SF-295; SK-MEL-2; T47D; UACC-257.
Holding throughout (test): growth of human tumour cells (NCI), 48 h

Turning to `COC1(CC[C@@H](C)COC2OC(CO)C(O)C(O)C2O)O[C@H]2C[C@H]3[C@@H]4CC=C5C[C@@H](OC6OC(CO)C(O)C(OC7OC(CO)C(O)C(O)C7O)C6OC6OC(C)C(O)C(O)C6O)CC[C@]5(C)[C@H]4CC[C@]3(C)[C@H]2[C@@H]1C` (stereo not given in full), the GI50 is 14.5 µM (inactive) in the assay on ACHN; 28.6 µM (inactive) in the assay with CCRF-CEM; 3.56 µM (inactive) in the assay on HCC 2998; 6.64 µM (inactive) with HCT-116; 8.51 µM (inactive) with Hs-578T; 7.24 µM (inactive) in the assay on IGROV-1. The GI50 in the assay on LOX IMVI is 2.8 µM (inactive); in the assay on M14, 2.37 µM (inactive); in the assay on MDA-MB-231, 0.885 µM (active); with Malme-3M it was 3.11 µM (inactive); in the assay with NCI-H23, 14.5 µM (inactive); with NCI-H460, 3.4 µM (inactive). The GI50 with NCI/ADR-RES was 16 µM (inactive); in the assay with OVCAR-3 it was 16.8 µM (inactive); in the assay on PC-3, 6.82 µM (inactive); in the assay on RPMI-8226, 32.2 µM (inactive); in the assay on SF-295, 3.48 µM (inactive); in the assay on SK-MEL-2 it was 13.7 µM (inactive). Further, the GI50 is 4.67 µM (inactive) in the assay on T47D and 11 µM (inactive) in the assay on UACC-257.
`CC(O)CCNC(=O)Nc1c(C(F)(F)F)cc(-c2ccccc2)[nH]c1=O` (stereo not given): the GI50 in the assay on ACHN, in the assay with CCRF-CEM, with HCC 2998, with HCT-116, with Hs-578T and in the assay with IGROV-1 was > 100 µM (inactive) each time. The GI50 in the assay on LOX IMVI is > 100 µM (inactive); in the assay with M14, > 100 µM (inactive); with MDA-MB-231, > 100 µM (inactive); in the assay with Malme-3M, 47.3 µM (inactive); in the assay on NCI-H23, > 100 µM (inactive); in the assay with NCI-H460, > 100 µM (inactive). In addition, the GI50 in the assay with NCI/ADR-RES, in the assay on OVCAR-3, in the assay on PC-3, in the assay on RPMI-8226, in the assay on SF-295 and in the assay with SK-MEL-2 was > 100 µM (inactive) throughout. Also, the GI50 with T47D and with UACC-257 was > 100 µM (inactive) throughout.
In the case of `O=c1c2c(no[n+]2[O-])c2ccccc2n1-c1ccccc1`, the GI50 in the assay on ACHN is 11.4 µM (inactive); in the assay on CCRF-CEM, 2.25 µM (inactive); in the assay with HCC 2998, 10.5 µM (inactive); with HCT-116, 2.17 µM (inactive); with Hs-578T, 18.6 µM (inactive); in the assay on IGROV-1, 3.75 µM (inactive). For the same compound, the GI50 is 1.69 µM (inactive) with LOX IMVI; 2.65 µM (inactive) with M14; 12.6 µM (inactive) in the assay with MDA-MB-231; 5.7 µM (inactive) in the assay on Malme-3M; 2.44 µM (inactive) in the assay on NCI-H23; 8.2 µM (inactive) in the assay with NCI-H460. In addition, the GI50 was 14.6 µM (inactive) with NCI/ADR-RES; 12.8 µM (inactive) with OVCAR-3; 14.3 µM (inactive) in the assay with PC-3; 5.87 µM (inactive) with RPMI-8226; 14.8 µM (inactive) in the assay with SF-295; 11.8 µM (inactive) in the assay with SK-MEL-2. Moreover, the results for the GI50 with T47D and in the assay with UACC-257 were 12.9 µM (inactive) and 13 µM (inactive), respectively.
Turning to `COc1ccc([N+](=O)[O-])c2c(NCCCN(C)C)ccnc12`, the GI50 with ACHN is 2.86 µM (inactive); in the assay with CCRF-CEM, 15 µM (inactive); in the assay on HCC 2998 it was 2.84 µM (inactive); in the assay on HCT-116, 3.77 µM (inactive); with Hs-578T, 6.35 µM (inactive); in the assay with IGROV-1, 1.66 µM (inactive). For the same compound, the GI50 was 6.71 µM (inactive) in the assay on LOX IMVI; 6.52 µM (inactive) in the assay on M14; 8.3 µM (inactive) in the assay on MDA-MB-231; 2.43 µM (inactive) in the assay on Malme-3M; 2.32 µM (inactive) in the assay on NCI-H23; 2.34 µM (inactive) in the assay on NCI-H460. The GI50 in the assay on NCI/ADR-RES is 15.8 µM (inactive); in the assay on OVCAR-3 it was 2.39 µM (inactive); in the assay with PC-3, 4.32 µM (inactive); with RPMI-8226, 1.65 µM (inactive); in the assay on SF-295 it was 3.61 µM (inactive); in the assay on SK-MEL-2 it was 2.05 µM (inactive). In addition, the GI50 in the assay on T47D was 3.52 µM (inactive); in the assay on UACC-257, 3.26 µM (inactive).
Consider `COc1ccc(CCN2COc3ccc4ccc(=O)oc4c3C2)cc1OC`, for which the GI50 with ACHN is > 100 µM (inactive); in the assay with CCRF-CEM it was 23.7 µM (inactive); in the assay with HCC 2998, > 100 µM (inactive); in the assay on HCT-116 it was 66.5 µM (inactive); in the assay on Hs-578T, > 100 µM (inactive); with IGROV-1 it was > 100 µM (inactive). In addition, the GI50 was 20.9 µM (inactive) in the assay on LOX IMVI; > 100 µM (inactive) with M14; > 100 µM (inactive) in the assay on MDA-MB-231; > 100 µM (inactive) with Malme-3M; > 100 µM (inactive) in the assay with NCI-H23; 66.8 µM (inactive) in the assay on NCI-H460. The GI50 is > 100 µM (inactive) in the assay with NCI/ADR-RES; > 100 µM (inactive) in the assay with OVCAR-3; > 100 µM (inactive) in the assay on PC-3; 22.4 µM (inactive) with RPMI-8226; > 100 µM (inactive) in the assay on SF-295; > 100 µM (inactive) with SK-MEL-2. In addition, the GI50 in the assay with T47D and with UACC-257 was > 100 µM (inactive) in each case.
Consider `CC(C)n1c2c([n+](C)c1/C=C/c1ccccc1)C(=O)c1ccccc1C2=O`, for which the GI50 was 2 µM (inactive) with ACHN; 0.0743 µM (active) with CCRF-CEM; 0.272 µM (active) with HCC 2998; 0.0748 µM (active) in the assay on HCT-116; 1.91 µM (inactive) in the assay with Hs-578T; 0.0157 µM (active) in the assay with IGROV-1. Also, the GI50 was 0.0721 µM (active) with LOX IMVI; 0.318 µM (active) in the assay on M14; 0.166 µM (active) with MDA-MB-231; 0.107 µM (active) in the assay on Malme-3M; 0.0908 µM (active) with NCI-H23; 0.36 µM (active) with NCI-H460. Besides, the GI50 was 48.6 µM (inactive) in the assay with NCI/ADR-RES; < 0.01 µM (active) in the assay with OVCAR-3; 0.149 µM (active) in the assay on PC-3; 0.0575 µM (active) with RPMI-8226; 0.916 µM (active) with SF-295; 0.116 µM (active) in the assay with SK-MEL-2. The GI50 in the assay with T47D is 0.0397 µM (active); in the assay on UACC-257, 0.0398 µM (active).
With `COc1cc(/C=C2\CC/C(=C\c3cc(OC)c(O)c(OC)c3)C2=O)cc(OC)c1O`, the GI50 in the assay on ACHN was 2.05 µM (inactive); with CCRF-CEM, 1.85 µM (inactive); with HCC 2998, 1.67 µM (inactive); in the assay with HCT-116, 1.83 µM (inactive); with Hs-578T, 2.09 µM (inactive); in the assay with IGROV-1 it was 0.881 µM (active). For the same compound, the GI50 in the assay on LOX IMVI was 2.29 µM (inactive); with M14 it was 2.19 µM (inactive); in the assay with MDA-MB-231, 2.14 µM (inactive); in the assay on Malme-3M, 0.345 µM (active); in the assay on NCI-H23, 1.98 µM (inactive); in the assay with NCI-H460, 1.89 µM (inactive). For the same compound, the GI50 in the assay on NCI/ADR-RES is 2.79 µM (inactive); in the assay on OVCAR-3 it was 2.2 µM (inactive); in the assay on PC-3 it was 2.62 µM (inactive); in the assay on RPMI-8226 it was 1.04 µM (active); in the assay on SF-295, 3.98 µM (inactive); with SK-MEL-2 it was 0.667 µM (active). The values for the GI50 in the assay with T47D and with UACC-257 were 2.32 µM (inactive) and 2.03 µM (inactive), respectively.
